Legend:
Olfr1062 = target: T1, Olfr1062 (Mus musculus, UniProt Q7TR71); assay: Dual-Glo firefly/Renilla luciferase reporter, dose-response; format: cell-based; conditions: odorant up to 0.3 mM; competitive-binding model fit, single odorant
T1 sequence (Q7TR71 1-315): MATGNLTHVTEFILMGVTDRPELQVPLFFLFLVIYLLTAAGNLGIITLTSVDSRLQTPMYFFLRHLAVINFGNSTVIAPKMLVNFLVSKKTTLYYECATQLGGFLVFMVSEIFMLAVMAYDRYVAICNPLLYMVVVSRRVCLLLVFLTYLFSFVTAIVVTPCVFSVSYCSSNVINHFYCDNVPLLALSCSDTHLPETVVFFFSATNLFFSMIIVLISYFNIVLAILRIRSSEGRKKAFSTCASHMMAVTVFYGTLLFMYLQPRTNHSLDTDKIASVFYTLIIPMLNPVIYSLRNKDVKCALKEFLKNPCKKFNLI

OR5P3 = target: T2, OR5P3 (Homo sapiens, UniProt Q8WZ94); assay: as above; format: cell-based; conditions: odorant up to 0.3 mM; competitive-binding model fit, single odorant
T2 sequence (Q8WZ94 1-311): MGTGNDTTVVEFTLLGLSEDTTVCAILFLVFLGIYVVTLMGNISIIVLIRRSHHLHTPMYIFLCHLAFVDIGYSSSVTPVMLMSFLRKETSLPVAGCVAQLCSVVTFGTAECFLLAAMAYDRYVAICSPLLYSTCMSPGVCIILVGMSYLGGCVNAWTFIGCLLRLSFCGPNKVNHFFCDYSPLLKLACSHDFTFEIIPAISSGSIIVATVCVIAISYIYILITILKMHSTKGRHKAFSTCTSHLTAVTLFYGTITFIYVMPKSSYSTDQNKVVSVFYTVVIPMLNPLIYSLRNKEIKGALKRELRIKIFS

C=CCc1ccc(O)c(OC)c1 [eugenol]
EC50 (Olfr1062): Olfr1062, synergy between all three pairs

O=c1ccc2ccccc2o1 [coumarin]
EC50 (OR5P3): OR5P3, synergy between coumarin and acetophenone
EC50 (Olfr1062): Olfr1062, synergy between all three pairs

CC(=O)c1ccccc1 [acetophenone]
EC50 (OR5P3): OR5P3, synergy between coumarin and acetophenone
EC50 (Olfr1062): Olfr1062, synergy between all three pairs

Reference: paper PMC6511041 (Proceedings of the National Academy of Sciences of the …, 2019)
